Values of other authors as cited in US20070275871A1 (BIOREXIS TECHNOLOGY, INC., priority 2003, published 2007).
Read-outs that look alike come from different tables or passages of the source. Blank lines part the entries; values can stand above or below the sequence they belong to.

Legend:
[1] = molecular target: T1, extracellular domain of EPO receptor (Homo sapiens, UniProt P19235)
T1 sequence (P19235 25-250 limits assumed): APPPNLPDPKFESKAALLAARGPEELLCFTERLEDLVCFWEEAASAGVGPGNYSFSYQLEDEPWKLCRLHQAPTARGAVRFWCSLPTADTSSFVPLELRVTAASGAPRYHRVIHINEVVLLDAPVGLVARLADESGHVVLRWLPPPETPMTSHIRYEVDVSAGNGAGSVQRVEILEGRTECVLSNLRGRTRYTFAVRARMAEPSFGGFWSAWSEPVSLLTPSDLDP

[2] = system: cell lines engineered to be responsive to EPO
EPO receptor [3] = molecular target: T2, EPO receptor (Homo sapiens, UniProt P19235)
T2 sequence (P19235 25-508): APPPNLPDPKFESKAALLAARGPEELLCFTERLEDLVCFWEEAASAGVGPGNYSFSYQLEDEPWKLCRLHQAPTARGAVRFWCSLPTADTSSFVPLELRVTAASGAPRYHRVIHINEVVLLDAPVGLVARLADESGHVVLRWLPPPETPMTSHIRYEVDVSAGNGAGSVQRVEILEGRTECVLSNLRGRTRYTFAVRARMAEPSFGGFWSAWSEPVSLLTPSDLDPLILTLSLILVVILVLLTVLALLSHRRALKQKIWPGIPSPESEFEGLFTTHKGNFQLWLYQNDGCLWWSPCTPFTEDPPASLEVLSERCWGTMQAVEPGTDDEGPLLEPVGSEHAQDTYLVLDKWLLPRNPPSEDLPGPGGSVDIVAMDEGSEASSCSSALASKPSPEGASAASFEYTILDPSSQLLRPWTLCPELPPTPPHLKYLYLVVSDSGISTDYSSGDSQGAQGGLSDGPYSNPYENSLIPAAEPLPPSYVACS

[4] = system: nascent red blood cell production; conditions: mice, two different in vivo assays of nascent red blood cell production
EPO receptor [5] = molecular target: T2, EPO receptor; conditions: N- and C-terminal deletions of EMP-1

Sequence: CRIGPITWVC
Kd ([1]; EPO domain-weak-binding consensus sequence, read-out: Kd): 10 mM

competition with EPO in receptor binding assays (EPO receptor [3]): competes with EPO | Kd ([1]; read-out: affinity (Kd)): 0.0002 mM
Sequence: GGTYSCHFGPLTWVCKPQGG [EMP-1]
cellular proliferation [2]: cause cellular proliferation | cascade of phosphorylation events and cell cycle progression (EPO responsive cells): induce a similar cascade of phosphorylation events and cell cycle progression | erythropoietic effects [4]: significant erythropoietic effects

activity in the assays for EPO mimetic action (EPO receptor [5]): minimal active peptide
Sequence: YSCHFGPLTWVCK [EMP-20]
